± gives the standard deviation of the averaged measurements.
Legend:
Test in all cases: relative viability vs DMSO control (72 h) (fraction); higher = more viable cells
[1] = system: KHOS-240S
Method in brief: (§1)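 A 5 µM positive control and 0.1% DMSO vehicle ran alongside sarcoma cell lines seeded in 384-well plates to reach 80–90% confluence. Serially diluted compound, 2.5 µl from source plates of 10 mM to 0.0002 mM, was added after 24 h, and the plates were held 72 h at 37 °C, 5% CO2. Relative viability was worked out from ATPLite readings as percent growth averaged over up to triplicate wells. The values were rescaled so that 1 is full and 0 is none.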

[2] = system: RD-ES
Method in brief: as §1

[3] = system: RD
Method in brief: as §1

[4] = system: SK-ES-1
Method in brief: as §1

[5] = system: SW982
Method in brief: as §1

## CCOc1cc2ncc(C#N)c(Nc3ccc(OCc4ccccn4)c(Cl)c3)c2cc1NC(=O)/C=C/[C@H]1CCCN1C [Pyrotinib]
[1]; 5.081 pM
  relative viability: 1.07 ± 0.014
[1]; 15.24 pM
  relative viability: 1.08 ± 0.036
[1]; 45.72 pM
  relative viability: 1.06 ± 0.026
[1]; 0.000137174 µM
  relative viability: 1.06 ± 0.054
[1]; 0.000411523 µM
  relative viability: 1.05 ± 0.018
[1]; 0.00123457 µM
  relative viability: 1.08 ± 0.026
[1]; 0.0037037 µM
  relative viability: 1.07 ± 0.044
[1]; 0.0111111 µM
  relative viability: 1.06 ± 0.058
[1]; 0.0333333 µM
  relative viability: 1.09 ± 0.075
[1]; 0.1 µM
  relative viability: 1.08 ± 0.041
[1]; 0.3 µM
  relative viability: 1.05 ± 0.03
[2]; 5.081 pM
  relative viability: 0.971 ± 0.028
[2]; 15.24 pM
  relative viability: 0.968 ± 0.014
[2]; 45.72 pM
  relative viability: 0.969 ± 0.026
[2]; 0.000137174 µM
  relative viability: 0.978 ± 0.032
[2]; 0.000411523 µM
  relative viability: 0.983 ± 0.039
[2]; 0.00123457 µM
  relative viability: 0.971 ± 0.017
[2]; 0.0037037 µM
  relative viability: 0.965 ± 0.022
[2]; 0.0111111 µM
  relative viability: 0.9672 ± 0.0053
[2]; 0.0333333 µM
  relative viability: 0.953 ± 0.012
[2]; 0.1 µM
  relative viability: 0.955 ± 0.047
[2]; 0.3 µM
  relative viability: 0.95 ± 0.02
[3]; 5.081 pM
  relative viability: 1.06 ± 0.033
[3]; 15.24 pM
  relative viability: 1.08 ± 0.02
[3]; 45.72 pM
  relative viability: 1.11 ± 0.016
[3]; 0.000137174 µM
  relative viability: 1.11 ± 0.032
[3]; 0.000411523 µM
  relative viability: 1.07 ± 0.063
[3]; 0.00123457 µM
  relative viability: 1.08 ± 0.07
[3]; 0.0037037 µM
  relative viability: 1.14 ± 0.018
[3]; 0.0111111 µM
  relative viability: 1.08 ± 0.078
[3]; 0.0333333 µM
  relative viability: 1.11 ± 0.025
[3]; 0.1 µM
  relative viability: 1.06 ± 0.041
[3]; 0.3 µM
  relative viability: 1.07 ± 0.056
[4]; 5.081 pM
  relative viability: 0.989 ± 0.035
[4]; 15.24 pM
  relative viability: 1.02 ± 0.041
[4]; 45.72 pM
  relative viability: 1.07 ± 0.028
[4]; 0.000137174 µM
  relative viability: 1.07 ± 0.045
[4]; 0.000411523 µM
  relative viability: 1.02 ± 0.034
[4]; 0.00123457 µM
  relative viability: 1.04 ± 0.041
[4]; 0.0037037 µM
  relative viability: 1.02 ± 0.047
[4]; 0.0111111 µM
  relative viability: 1.04 ± 0.044
[4]; 0.0333333 µM
  relative viability: 0.992 ± 0.058
[4]; 0.1 µM
  relative viability: 0.987 ± 0.042
[4]; 0.3 µM
  relative viability: 0.8694 ± 0.0074
[5]; 5.081 pM
  relative viability: 1 ± 0.021
[5]; 15.24 pM
  relative viability: 1.03 ± 0.039
[5]; 45.72 pM
  relative viability: 1.05 ± 0.051
[5]; 0.000137174 µM
  relative viability: 1.09 ± 0.032
[5]; 0.000411523 µM
  relative viability: 1.05 ± 0.025
[5]; 0.00123457 µM
  relative viability: 1.04 ± 0.049
[5]; 0.0037037 µM
  relative viability: 1.03 ± 0.047
[5]; 0.0111111 µM
  relative viability: 1.03 ± 0.032
[5]; 0.0333333 µM
  relative viability: 1.03 ± 0.067
[5]; 0.1 µM
  relative viability: 1.02 ± 0.022
[5]; 0.3 µM
  relative viability: 0.952 ± 0.036

## CCN(CCCOc1ccc2c(Nc3cc(CC(=O)Nc4cccc(F)c4)[nH]n3)ncnc2c1)CCOP(=O)(O)O [Barasertib]
[1]; 0.00017 µM
  relative viability: 1.04 ± 0.041
[1]; 0.00051 µM
  relative viability: 1.02 ± 0.027
[1]; 0.00152 µM
  relative viability: 1.03 ± 0.028
[1]; 0.00457 µM
  relative viability: 1 ± 0.033
[1]; 0.01372 µM
  relative viability: 0.978 ± 0.036
[1]; 0.04115 µM
  relative viability: 0.9 ± 0.036
[1]; 0.1235 µM
  relative viability: 0.794 ± 0.01
[1]; 0.3704 µM
  relative viability: 0.759 ± 0.019
[1]; 1.111 µM
  relative viability: 0.744 ± 0.022
[1]; 3.333 µM
  relative viability: 0.736 ± 0.019
[1]; 10 µM
  relative viability: 0.712 ± 0.044
[2]; 0.00017 µM
  relative viability: 0.994 ± 0.024
[2]; 0.00051 µM
  relative viability: 0.974 ± 0.046
[2]; 0.00152 µM
  relative viability: 0.984 ± 0.015
[2]; 0.00457 µM
  relative viability: 0.951 ± 0.035
[2]; 0.01372 µM
  relative viability: 0.746 ± 0.01
[2]; 0.04115 µM
  relative viability: 0.156 ± 0.0099
[2]; 0.1235 µM
  relative viability: 0.143 ± 0.02
[2]; 0.3704 µM
  relative viability: 0.14 ± 0.011
[2]; 1.111 µM
  relative viability: 0.131 ± 0.0095
[2]; 3.333 µM
  relative viability: 0.117 ± 0.0084
[2]; 10 µM
  relative viability: 0.127 ± 0.011
[3]; 0.00017 µM
  relative viability: 1.09 ± 0.047
[3]; 0.00051 µM
  relative viability: 1.09 ± 0.031
[3]; 0.00152 µM
  relative viability: 1.1 ± 0.023
[3]; 0.00457 µM
  relative viability: 1.06 ± 0.047
[3]; 0.01372 µM
  relative viability: 0.943 ± 0.04
[3]; 0.04115 µM
  relative viability: 0.888 ± 0.033
[3]; 0.1235 µM
  relative viability: 0.869 ± 0.03
[3]; 0.3704 µM
  relative viability: 0.84 ± 0.034
[3]; 1.111 µM
  relative viability: 0.803 ± 0.03
[3]; 3.333 µM
  relative viability: 0.759 ± 0.031
[3]; 10 µM
  relative viability: 0.681 ± 0.043
[4]; 0.00017 µM
  relative viability: 1.05 ± 0.1
[4]; 0.00051 µM
  relative viability: 1.09 ± 0.012
[4]; 0.00152 µM
  relative viability: 1.04 ± 0.049
[4]; 0.00457 µM
  relative viability: 0.98 ± 0.047
[4]; 0.01372 µM
  relative viability: 0.237 ± 0.043
[4]; 0.04115 µM
  relative viability: 0.065 ± 0.0049
[4]; 0.1235 µM
  relative viability: 0.0636 ± 0.0021
[4]; 0.3704 µM
  relative viability: 0.0641 ± 0.0024
[4]; 1.111 µM
  relative viability: 0.061 ± 0.0046
[4]; 3.333 µM
  relative viability: 0.0649 ± 0.0088
[4]; 10 µM
  relative viability: 0.0658 ± 0.0041
[5]; 0.00017 µM
  relative viability: 1.06 ± 0.036
[5]; 0.00051 µM
  relative viability: 1.03 ± 0.015
[5]; 0.00152 µM
  relative viability: 1.05 ± 0.057
[5]; 0.00457 µM
  relative viability: 1.05 ± 0.028
[5]; 0.01372 µM
  relative viability: 1 ± 0.063
[5]; 0.04115 µM
  relative viability: 0.713 ± 0.032
[5]; 0.1235 µM
  relative viability: 0.5551 ± 0.005
[5]; 0.3704 µM
  relative viability: 0.552 ± 0.011
[5]; 1.111 µM
  relative viability: 0.589 ± 0.016
[5]; 3.333 µM
  relative viability: 0.525 ± 0.005
[5]; 10 µM
  relative viability: 0.468 ± 0.025

Reference: the supplement of paper PMC10883282
